In paper PMC8022998 (Biomacromolecules, 2020):

Molecular target: TSPO (translocator protein (18 kDa)) (Oryctolagus cuniculus, UniProt G1SMF7)
Assay: [3H]-PK11195 radioligand displacement, size exclusion desalting plates
Format: binding
Conditions: 1.2 nM [3H]-PK11195, 50 mM Tris-HCl pH 7.4, 30 min, room temperature; isolated mitochondria

Chain of TSPO (translocator protein (18 kDa)) (G1SMF7 229-397): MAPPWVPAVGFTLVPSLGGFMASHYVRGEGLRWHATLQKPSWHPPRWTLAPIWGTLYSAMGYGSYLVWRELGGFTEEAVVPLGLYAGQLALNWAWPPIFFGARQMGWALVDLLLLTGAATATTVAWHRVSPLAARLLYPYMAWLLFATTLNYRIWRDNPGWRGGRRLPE

Structure (SMILES)	IC50 [nM]
CCN(CC)C(=O)Cc1c(-c2ccc(OCCn3cc(CO)nn3)cc2)nn2c(C)cc(C)nc12 [DPA-triazole]	100 ± 20
CCC(C)N(C)C(=O)c1cc2ccccc2c(-c2ccccc2Cl)n1 (centres unmarked) [PK11195]	5 ± 0.5
